{"source": "patent US11786555B2", "about": "“RAR selective agonists in combination with immune modulators for cancer immunotherapy” (IO THERAPEUTICS, INC., priority 2017, dated 2023)", "key": {"NB4 cells": {"test_system": "NB4 cells", "assay": "CFU experiments, off and on stroma", "format": "cell-based", "details": "10^−7 M ATRA, IRX5183, or 10^−8 M AM80", "text": "(§1) Data across three independent experiments."}, "OCI-AML3 cells": {"test_system": "OCI-AML3 cells", "assay": "CFU experiments, off and on stroma", "format": "cell-based", "details": "10^−6 M ATRA, IRX5183, or 10^−7 M AM80", "text": "as §1"}, "Kasumi-1 cells": {"test_system": "Kasumi-1 cells", "assay": "CFU experiments, off and on stroma", "format": "cell-based", "details": "10^−6 M ATRA, IRX5183, or 10^−7 M AM80", "text": "as §1"}, "H929 Luc+ cells": {"test_system": "H929 Luc+ cells", "assay": "systemic MM xenograft, bioluminescence", "format": "in vivo, mouse", "details": "monotherapy, 4 weeks; BTZ 0.5 mg/kg i.p. twice weekly, IRX 10 mg/kg once daily", "protocol": "FIG. 6 depicts bioluminescent images of systemic MM xenografts. Following engraftment of H929 Luc+ cells, mice were treated with IRX (n=4), BTZ (n=5), or a combination of both (n=5) for 4 weeks. Data represent the mean±SEM of the fold change in bioluminescence (photons/second) from day 0.\nFor the systemic MM model, 2×10^6 Luc+/GFP+ H929 cells were injected via the tail vein into 16-week-old male NSG mice. After engraftment, as determined by an exponential increase in bioluminescence, mice were treated with BTZ (0.5 mg/kg i.p.) twice weekly and with IRX (10 mg/kg) once daily. Tumor burden was assessed by bioluminescence, as above.\nTo test whether retinoids can enhance BTZ activity in MM, a systemic MM xenograft was developed by injecting 2×10^6 H929 luciferase+ (Luc+) cells via the tail vein of non-obese, diabetic, severe combined immunodeficiency IL-2 receptor y-KO (NSG) mice. The animals were randomized to receive IRX, BTZ, or a combination of both, and disease burden was followed weekly by bioluminescence imaging (FIG. 6)."}, "[1]": {"test_system": "H929 Luc+ cells with WT or Smo-KO stroma", "assay": "subcutaneous xenograft model of MM-niche interactions, bioluminescence", "format": "in vivo, mouse", "details": "BTZ 0.5 mg/kg i.p. twice weekly", "protocol": "FIG. 9 depicts bioluminescent images of mice showing tumor burden during 4 weeks of treatment with IRX (10 mg/kg), BTZ (0.5 mg/kg), or the combination. Anterior tumors consisted of a combination of MM.1S luciferase^+ cells and Smo^FI/FI BM stroma cells transduced with a control vector (WT BM stroma). Posterior tumors consisted of a combination of MM.1S luciferase^+ cells and Smo^FI/FI BM stroma cells transduced with Cre-recombinase (Smo KO BM stroma).\nFIG. 10 depicts the fold change in bioluminescence (photons/second) of tumors during 4 weeks of treatment. The change in bioluminescence for each tumor […].\nMouse xenografts. 1×10^6 H929 Luc+ cells and 1×10^6 mouse BM stromal cells were resuspended in 100 μl […]®, diluted with RPMI (1:1), and injected subcutaneously into 16-week-old male NSG mice. After 4 days, treatment with BTZ (0.5 mg/kg i.p. twice weekly) and IRX (10 mg/kg i.p. daily) was initiated. Tumor burden was assessed by bioluminescence using the In Vivo Imaging System (PerkinElmer). For imaging, mice were exposed to 120 mg/kg D-luciferin via intraperitoneal injection […] before imaging and were anesthetized using isoflurane. Images were analyzed with Living Image Software, version 2.5 (PerkinElmer), and data were quantified as photons/second.\nTo study to what extent an RA-low environment created by the BM stroma and enhanced by MM cells via paracrine Hedgehog signaling contributes to BTZ resistance, a xenograft model of MM-niche interactions was developed. Each mouse carried 2 subcutaneous tumors consisting of H929 Luc+ cells and either WT (anterior tumors) or Smo-KO stroma (posterior tumors). Mice were treated with IRX (10 mg/kg i.p. daily), BTZ (0.5 mg/kg i.p. twice weekly), or a combination of both. The growth of tumors bearing WT or Smo-KO stroma was not different in untreated or IRX-treated groups (FIGS. 9 and 10). […] While some tumors in the treatment group receiving combined IRX and BTZ appeared to have regressed completely, even after anatomical study, this was not the case for all the mice in this group."}, "H929 cells": {"test_system": "H929 cells", "assay": "mobilization experiment, BTZ after separation from BM stroma", "format": "cell-based, human", "protocol": "FIG. 5 depicts clonogenic recovery of H929 cells treated with BTZ (2.5 nM). MM cells were incubated for 5 days in the absence (Liquid) or presence of BM mesenchymal cells (Stroma), with or without R115 (1 μM). Following this preincubation, H929 cells were separated from BM stroma, cultured in fresh media for 0 to 48 hours, and then treated with BTZ (2.5 nM) for 48 hours. Clonogenic recovery was normalized to each condition in the absence of BTZ.\nMobilization experiments. MM cells were separated from BM stromal cells by gently pipetting several times around the well. Detached cells were centrifuged, resuspended in fresh media, and incubated in a 24-well plate for 1 hr at 37° C. During this short incubation period, contaminating stromal cells attached to the well, while MM cells remained in suspension. MM cells were then recovered by gently pipetting. This protocol was used for qRT-PCR and CFU coculture experiments. […]\nClonogenic assays. […] Cells were plated in triplicate in 35-mm culture dishes, incubated at 37° C., and scored for the presence of colonies 14 days later.\nStrategies to overcome microenvironment-dependent chemoprotection have focused on mobilization of cancer cells from the BM niche into the peripheral circulation. It was analyzed whether the change in phenotype and subsequent BTZ resistance of MM cells were lost upon separation from the BM stroma, a process that mimics mobilization. […]"}, "[2]": {"test_system": "H929 cells and primary CD138+ MM cells", "assay": "clonogenic or cellular recovery of MM cells after BTZ treatment", "format": "cell-based, human", "details": "for sensitivity of MM cells to BTZ: BTZ 2.5 nM for 48 hours", "protocol": "FIG. 4A-B depicts the clonogenic recovery (CFU) of H929 cells (FIG. 4A) or cellular recovery of primary CD138+ MM cells from 3 different patient samples (FIG. 4B). MM cells were treated with bortezomib (BTZ; 2.5 nM) for 48 hours after being incubated for 5 days either in the absence of stroma (Liquid), with or without the pan-RAR inhibitor AGN (1 μM), or in the presence of BM mesenchymal cells (Stroma), with or without the CYP26 inhibitor R115 (1 μM) or the CYP26-resistant retinoid IRX (1 μM). Clonogenic or cellular recovery was normalized to each condition in the absence of BTZ.\n(§2) Coculture experiments. 24-well plates were coated with 0.1% gelatin in PBS for 30 min at 37° C. The gelatin solution was removed, and the stromal cells were cultured overnight at a density of 5×10^4 cells/well to obtain a confluent monolayer. At that time, MM cell lines or primary MM cells (1×10^5 in 2 ml) were added to the stroma cultures. The stroma cocultures were incubated at 37° C. in RPMI containing 10% FCS, L-glutamine, and P/S, with or without AGN194310 (1 μM for 5 days), R115866 (1 μM for 5 days), IRX5183 (1 μM for 5 days), or BTZ (2.5 nM for 48 hr).\nClonogenic assays. After treatment, MM cells were collected, washed with PBS, and plated at a density of 5,000 cells/ml in 1 ml of 1.32% methylcellulose supplemented with 30% FBS, 10% BSA, L-glutamine, P/S, and 0.1 mM β-ME. Cells were plated in triplicate in 35-mm culture dishes, incubated at 37° C., and scored for the presence of colonies 14 days later.\nA RA-low microenvironment induces BTZ resistance. To determine whether decreased retinoid signaling contributes to BTZ resistance within the BM niche, MM cell lines and MM CD138+ primary cells were incubated with BM stroma for 5 days, followed by BTZ treatment."}, "[3]": {"test_system": "H929 cells and CD138+ primary MM cells", "assay": "qRT-PCR of B cell and PC markers in MM cells, liquid or BM stroma co-culture", "format": "cell-based, human", "protocol": "FIG. 3A-H depicts the relative concentration of plasma markers BCL6 (FIG. 3A and E), BLIMP-1 (FIG. 3B and F), XBPS-1 (FIG. 3C and G), and CHOP (FIG. 3D and H) in multiple myeloma (MM) cell lines H929 (FIG. 3A-D) or CD138+ MM cells from three different patient samples (FIG. 3E-H) incubated for 5 days either in the absence of stroma (Liquid), with or without AGN (RA receptor antagonist AGN194310, 1 μM), or co-cultured with BM mesenchymal cells (Stroma), with or without R115 (CYP26 inhibitor R115866, 1 μM) or IRX (CYP26-resistant retinoid IRX5183, 1 μM). Expression in untreated liquid conditions was set at 1. Data are representative of 3 independent experiments with similar results and represent the mean ±SEM. *P≤0.05 and **P≤0.01, by repeated-measures 1-way ANOVA for determination of statistical significance between groups; P values were corrected for multiple comparisons using Dunnett's test. Ctrl, control; max, maximum.\nas §2\n(§3) qRT-PCR. Total RNA was extracted using the RNeasy Mini Kit (QIAGEN) according to the manufacturer's instructions. cDNA was synthesized by reverse transcription using the iScript cDNA Synthesis Kit (Bio-Rad). qRT-PCR was performed with iTaq SYBR Green Supermix (Bio-Rad) using sequence specific primers. Gene expression was normalized to GAPDH, and relative quantification was calculated using ΔΔCt. All experiments were performed in duplicate and run on the Bio-Rad CFX96 machine.\nThe BM microenvironment (also called “niche”) limits PC differentiation by modulating retinoid signaling. A population of MM progenitors, phenotypically similar to B cells, is intrinsically resistant to BTZ and contributes to MRD and relapse. To investigate whether the BM niche plays a role in determining the phenotype of MM cells, the mRNA expression of B cell and PC markers in MM H929 cell lines (FIG. 3A-D) and MM CD138+ primary cells (FIG. 3E-H) was analyzed following co-culture with mouse BM stroma using human-specific primers. […] In contrast, co-culture of MM cells with BM stroma decreased the mRNA expression of B lymphocyte-induced maturation protein 1 (BLIMP1) and spliced X box-binding protein 1 (XBP1s) (FIG. 3B, C, F, G), which are critical mediators of PC differentiation.\nThe BM niche regulates hematopoietic stem cell (HSC) differentiation by expressing the retinoid-inactivating enzyme CYP26. CYP26 enzymes were highly expressed in BM mesenchymal cells, while their expression was barely detectable in MM cells. Since retinoid signaling promotes PC differentiation and potentiates Ig secretion, it was determined whether stromal CYP26 is responsible for inducing a B cell phenotype in MM cells. To this end, co-culture conditions were treated with the CYP26 inhibitor R115866 (R115) or the CYP26-resistant RA receptor α-selective (RARα-selective) retinoid IRX5183 (IRX)."}, "BM stromal cells": {"test_system": "BM stromal cells", "assay": "CYP26A1 expression in BM stromal cells exposed to soluble factors", "format": "cell-based", "details": "soluble factors tested", "protocol": "as §3"}}, "data": [{"compound": "CC1=C(/C=C/C(C)=C/C=C/C(C)=C/C(=O)O)C(C)(C)CCC1", "note": "[ATRA, all-trans retinoic acid]", "values": [{"measurement": "clonogenic growth (CFU), differentiation and elimination of AML", "setting": "NB4 cells", "result": "stroma blockage"}, {"measurement": "clonogenic growth (CFU), differentiation and elimination of AML", "setting": "OCI-AML3 cells", "result": "stroma blockage"}, {"measurement": "clonogenic growth (CFU), differentiation and elimination of AML", "setting": "Kasumi-1 cells", "result": "stroma blockage"}]}, {"compound": "CC(C)C[C@H](NC(=O)[C@H](Cc1ccccc1)NC(=O)c1cnccn1)B(O)O", "note": "[BTZ, bortezomib]", "values": [{"measurement": "tumor burden (bioluminescence)", "setting": "H929 Luc+ cells", "result": "decreased tumor growth compared with untreated controls"}, {"measurement": "tumor response (bioluminescence)", "setting": "[1]; tumors carrying Smo-KO stroma", "result": "significant response"}, {"measurement": "tumor response (bioluminescence)", "setting": "[1]; tumors with WT stroma", "result": "refractory to BTZ treatment"}, {"measurement": "BTZ resistance after separation from BM stroma", "setting": "H929 cells; 5-day stroma co-culture, fresh media 0 to 48 hr, then BTZ 2.5 nM", "result": "remained partially resistant to BTZ for up to 48 hr following detachment from stroma"}, {"measurement": "sensitivity of MM cells to BTZ", "setting": "[2]; absence of BM stroma (liquid)", "result": "highly sensitive to BTZ"}, {"measurement": "sensitivity of MM cells to BTZ", "setting": "[2]; after 5 days incubation with BM stroma", "result": "induced BTZ resistance"}]}, {"compound": "CCC(CC)C(c1ccc(Nc2nc3ccccc3s2)cc1)n1cncn1", "note": "(stereo not drawn) [Compound R115866]", "values": [{"measurement": "development of BTZ-resistant phenotype", "setting": "H929 cells; co-culture treated with 1 μM, then separation and BTZ", "result": "prevented the development of a BTZ-resistant phenotype"}, {"measurement": "expression of differentiation markers by qRT-PCR or flow cytometry", "setting": "[3]; liquid conditions compared with BM stroma", "result": "did not significantly affect the expression of differentiation markers"}, {"measurement": "mRNA expression of B cell and PC markers (BCL6, BLIMP1, XBP1s, CHOP)", "setting": "[3]; stroma co-cultures, 1 μM for 5 days", "result": "restored all markers to levels comparable to those of liquid control conditions"}, {"measurement": "effect on stroma-induced BTZ resistance", "setting": "[2]; stroma co-culture, 1 μM for 5 days, then BTZ 2.5 nM", "result": "overcome"}]}, {"compound": "IL-6: cytokine, soluble factor produced by MM cells", "values": [{"measurement": "expression of CYP26A1 on BM stromal cells", "setting": "BM stromal cells", "result": "no significant effects"}]}, {"compound": "TNF-α", "values": [{"measurement": "expression of CYP26A1 on BM stromal cells", "setting": "BM stromal cells", "result": "no significant effects"}]}]}
